Test results: paper PMC10714399, “Open Source Antibiotics: Simple Diarylimidazoles Are Potent against Methicillin-Resistant Staphylococcus aureus” (ACS Infectious Diseases, 2023)
Converted amounts (≈) assume the structure as drawn.

system: Enterococcus faecalis ATCC 51299 (vanA-positive; vancomycin-resistant); test: In vitro antibacterial activity, MIC (UCL), VRE; format: cell-based; details: read-out: VRE MIC (UCL)
Experimental: Staphylococcus aureus NCTC 13373 (mecA-positive; methicillin-resistant, NCTC 13373) was supplied by the National Collection of Type Cultures (NCTC), Public Health England, United Kingdom. Other organisms, S. aureus ATCC 25923 (methicillin-susceptible) and Enterococcus faecalis ATCC 51299 (vanA-positive; vancomycin-resistant), were obtained from the American Type Culture Collection (ATCC) via LGC Standards, UK. A suspension of each organism was prepared from an overnight plate culture (tryptone soya agar) in phosphate-buffered saline (PBS) and adjusted to an absorbance reading at 600 nm of 0.1, which is approximately equivalent to 1 × 10^8 colony-forming units (CFU) per mL. The cultures were further diluted 1:100 in isosensitest broth (Oxoid, United Kingdom) before 100 μL was used to inoculate each well of a 96-well plate that contained diluted samples of the OSA series. Compounds were evaluated over a 2-fold dilution range from 32 to 0.03 μg/mL. Stocks of the samples were prepared in 100% DMSO at […] before being diluted in isosenstitest broth. The highest concentration of DMSO present was 2%, which has been previously shown not to inhibit the growth of the microorganisms (data not shown). […] Vancomycin was used as a quality control compound.

MIC	Compound
32 µg/mL (≈ 92.7 µM)	FC(F)(F)Oc1ccc(-c2c(-c3ccccn3)nc3n2CCC3)cc1 [OSA_000868]
> 32 µg/mL	Fc1cccc(-c2c(-c3ccccn3)nc3n2CCC3)c1 [OSA_000872]
16 µg/mL (≈ 54.1 µM)	Clc1ccc(-c2c(-c3ccccn3)nc3n2CCC3)cc1 [OSA_000875]
8 µg/mL (≈ 24.2 µM)	Clc1ccc(-c2c(-c3ccccn3)nc3n2CCC3)cc1Cl [OSA_000876]
> 32 µg/mL	CN(C)C(=O)c1ccc(-c2c(-c3ccccn3)nc3n2CCC3)cc1 [OSA_000974]
16 µg/mL (≈ 55.9 µM)	N#Cc1ccc(-c2c(-c3ccccn3)nc3n2CCC3)cc1 [OSA_000975]

system: PMM (primary mouse macrophages); test: Toxicity against PMM; format: cell-based; details: PMM
Experimental: (§1) ADME and toxicity for compounds were measured according to procedures outlined in the manuscript submitted in parallel to this one;2 other procedures were used for those compounds analysed by Monash University (in vitro ADME) or UCL (toxicity), both described in the main

Compound	PMM TC50
Fc1cccc(-c2c(-c3ccccn3)nc3n2CCC3)c1 [OSA_000872]	54.63 µM
Clc1ccc(-c2c(-c3ccccn3)nc3n2CCC3)cc1 [OSA_000875]	8 µM
N#Cc1ccc(-c2c(-c3ccccn3)nc3n2CCC3)cc1 [OSA_000975]	64 µM

system: Staphylococcus aureus NCTC 13373 (mecA-positive; methicillin-resistant); test: In vitro antibacterial activity, MIC (UCL School of Pharmacy assay), MRSA; format: cell-based; details: Staphylococcus aureus, UCL; read-out: MRSA MIC (UCL)
Method in brief: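 Two-fold dilution MIC testing, 32–0.03 μg/mL, isosensitest broth medium. Cultures standardized by absorbance at 600 nm (0.1, ~1 × 10^8 CFU/mL) before 1:100 dilution; vancomycin included for quality control.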

MIC	Compound
8 µg/mL (≈ 23.2 µM)	FC(F)(F)Oc1ccc(-c2c(-c3ccccn3)nc3n2CCC3)cc1 [OSA_000868]
> 32 µg/mL	Fc1cccc(-c2c(-c3ccccn3)nc3n2CCC3)c1 [OSA_000872]
4 µg/mL (≈ 13.5 µM)	Clc1ccc(-c2c(-c3ccccn3)nc3n2CCC3)cc1 [OSA_000875]
8 µg/mL (≈ 24.2 µM)	Clc1ccc(-c2c(-c3ccccn3)nc3n2CCC3)cc1Cl [OSA_000876]
> 32 µg/mL	CN(C)C(=O)c1ccc(-c2c(-c3ccccn3)nc3n2CCC3)cc1 [OSA_000974]
4 µg/mL (≈ 14 µM)	N#Cc1ccc(-c2c(-c3ccccn3)nc3n2CCC3)cc1 [OSA_000975]

system: not listed separately; test: Human plasma protein binding (PPB); format: in vitro ADME; details: human, plasma, human plasma, NEU; read-out: Human PPB (NEU) (converted)
Text: (§2) To guide our initial SAR exploration work, we obtained liver microsomal intrinsic clearance data for 5 of the 18 compounds assayed by CO-ADD (Supporting Information - CDCO Report and Supporting Information - Biology). We then acquired intrinsic clearance (CLint), plasma protein binding (PPB), and solubility data on further compounds throughout the SAR campaign (Supporting Information - Biology, Tables S3 and S4).
(§3) Table S4. ADME and Pharmacokinetics: compounds only appearing in the Supplementary […]
(§4) MRSA Aqueous HLM CLint Rat Hep CLint
(§5) Cmpd MIC Solubility Human PPB (%) (µL/min/mg (µL/min/10x6 LogD7.4
(§6) (µg/mL) (µM) protein) cells)
as §1

fraction unbound	Compound
0.044	FC(F)(F)Oc1ccc(-c2c(-c3ccccn3)nc3n2CCC3)cc1 [OSA_000868]
0.033	Clc1ccc(-c2c(-c3ccccn3)nc3n2CCC3)cc1 [OSA_000875]
0.015	Clc1ccc(-c2c(-c3ccccn3)nc3n2CCC3)cc1Cl [OSA_000876]
0.55	CN(C)C(=O)c1ccc(-c2c(-c3ccccn3)nc3n2CCC3)cc1 [OSA_000974]
0.29	N#Cc1ccc(-c2c(-c3ccccn3)nc3n2CCC3)cc1 [OSA_000975]

system: not listed separately; test: Human liver microsome intrinsic clearance; format: in vitro ADME; details: human liver microsomes, NEU
Text: as §2, §3, §4, §5, §6, §1

HLM CLint (NEU)	Compound
62.2 uL/min/mg protein	FC(F)(F)Oc1ccc(-c2c(-c3ccccn3)nc3n2CCC3)cc1 [OSA_000868]
100 uL/min/mg protein	Clc1ccc(-c2c(-c3ccccn3)nc3n2CCC3)cc1Cl [OSA_000876]
<3 uL/min/mg protein	CN(C)C(=O)c1ccc(-c2c(-c3ccccn3)nc3n2CCC3)cc1 [OSA_000974]
99.1 uL/min/mg protein	N#Cc1ccc(-c2c(-c3ccccn3)nc3n2CCC3)cc1 [OSA_000975]

same assay, conditions: human liver microsomes, NEU; read-out: HLM CLint (NEU)

microsomal CLint	Compound
168 µL/min/mg	Clc1ccc(-c2c(-c3ccccn3)nc3n2CCC3)cc1 [OSA_000875]

system: MRC-5SV2 (human lung fibroblast cell line); test: Toxicity against MRC-5SV2; format: cell-based; details: MRC5 cells
Experimental: as §1

Compound	MRC5 TC50
Fc1cccc(-c2c(-c3ccccn3)nc3n2CCC3)c1 [OSA_000872]	7.2 µM
Clc1ccc(-c2c(-c3ccccn3)nc3n2CCC3)cc1 [OSA_000875]	5.45 µM
N#Cc1ccc(-c2c(-c3ccccn3)nc3n2CCC3)cc1 [OSA_000975]	25.9 µM

system: not listed separately; test: Rat hepatocyte intrinsic clearance; format: in vitro ADME; details: rat hepatocytes, NEU
Text: as §2, §3, §4, §5, §6, §1

Rat Hep CLint (NEU)	Compound
54.1 uL/min/10x6 cells	FC(F)(F)Oc1ccc(-c2c(-c3ccccn3)nc3n2CCC3)cc1 [OSA_000868]
21.9 uL/min/10x6 cells	Clc1ccc(-c2c(-c3ccccn3)nc3n2CCC3)cc1 [OSA_000875]
37.7 uL/min/10x6 cells	Clc1ccc(-c2c(-c3ccccn3)nc3n2CCC3)cc1Cl [OSA_000876]
<1 uL/min/10x6 cells	CN(C)C(=O)c1ccc(-c2c(-c3ccccn3)nc3n2CCC3)cc1 [OSA_000974]
7.99 uL/min/10x6 cells	N#Cc1ccc(-c2c(-c3ccccn3)nc3n2CCC3)cc1 [OSA_000975]

system: not listed separately; test: Aqueous solubility; format: physicochemical; details: NEU
Text: as §2, with “S4). […] The more polar compounds (lower LogD) had reduced PPB and were more metabolically stable.” for “S4).”
as §3, §4, §5, §6, §1

Aqueous Solubility (NEU)	Compound
782 µM	CN(C)C(=O)c1ccc(-c2c(-c3ccccn3)nc3n2CCC3)cc1 [OSA_000974]
38 µM	N#Cc1ccc(-c2c(-c3ccccn3)nc3n2CCC3)cc1 [OSA_000975]

same assay, conditions: thermodynamic from solid; NEU; read-out: Aqueous Solubility (NEU)

solubility	Compound
38 µM (≈ 13.1 µg/mL)	FC(F)(F)Oc1ccc(-c2c(-c3ccccn3)nc3n2CCC3)cc1 [OSA_000868]
4 µM (≈ 1.18 µg/mL)	Clc1ccc(-c2c(-c3ccccn3)nc3n2CCC3)cc1 [OSA_000875]
3 µM (≈ 0.991 µg/mL)	Clc1ccc(-c2c(-c3ccccn3)nc3n2CCC3)cc1Cl [OSA_000876]
